Experimental data as given in patent publication US20230065562A1, “DUAL CONTROLS FOR THERAPEUTIC CELL ACTIVATION OR ELIMINATION” (Bellicum Pharmaceuticals, Inc., priority 2015, published 2023).

Legend:
Type in all cases: cell-based, human
T cells expressing iC9 = assay: T cell killing assay with caspase 3/7 green reagent monitored by IncuCyte, iC9; details: increasing doses, PBMCs from 3 donors, FIG. 108B
Source text: To determine the functionality of these switches in activated T cells, retroviral supernatants were produced and transduced into PBMCs activated from 3 separate donors.

Raji-GFP cells = assay: Raji-GFP coculture with CD19 CAR-T cells (flow cytometry); details: 2 nM, E:T 1:5, seven days
Procedure: After seven days of incubation the live cells were analyzed for the proportion of GFP labeled tumor cells (left) and for the proportion of total T cells (CD3^+, right) and transduced CAR-T cells (CD34, not shown).
Raji cells (ATCC) labeled by stable expression of Green Fluorescent Protein (Raji-GFP) are a Burkitt's lymphoma cell line that express CD19 on the cell surface and are a target for an anti-CD19 CAR. 50000 Raji-GFP cells were seeded on a 24 well plate with 10000 CAR-T cells, a 1:5 E:T ratio. Media supernatant was taken at 48 hours for determination of cytokine release by activated CAR-T cells. The degree of tumor killing was determined at 7 days and 14 days by flow cytometry (Galeos, Beckman-Coulter) by the proportion of GFP labeled tumor cells and CD3 labeled T cells.

non-transduced cells = assay: AP20187 on non-transduced cells (annexin V/7-AAD viability)
Procedure: (§1) Suicide gene functionality was assessed by adding a small molecule synthetic homodimerizer, AP20187 (Ariad Pharmaceuticals; Cambridge, Mass.), at 10 nM final concentration the day following CD19 immunomagnetic selection. Cells were stained with annexin V and 7-amino-actinomycin (7-AAD)(BD Pharmingen) at 24 hours and analyzed by flow cytometry. Cells negative for both annexin V and 7-AAD were considered viable, cells that were annexin V positive were apoptotic, and cells that were both annexin V and 7-AAD positive were necrotic. The percentage killing induced by dimerization was corrected for baseline viability as follows: Percentage killing=100%−(% Viability in AP20187-treated cells÷% Viability in nontreated cells).
The day following immunomagnetic selection, 10 nM of the chemical inducer of dimerization, AP20187, was added to induce apoptosis, which appeared within 24 hours. […] Killing efficiency after correction for baseline viability was about 92.9%±3.8%. Large-scale CD19 selection produced cells that were killed with similar efficiency as small-scale selection: mean viability with and without AP20187, and percentage killing, in large and small scale were about 3.9%, about 84.0%, about 95.4% (n=3) and about 6.6%, about 79.3%, about 91.4% (n=5) respectively. […]

[1] = test system: iCasp9-transduced, CD19-selected allodepleted T cells; assay: Induction of apoptosis with AP20187 in gene-modified allodepleted T cells (annexin V/7-AAD)
Procedure: as §1
Cells were maintained in T cell medium containing 50 U/ml IL-2 until 22 days after transduction. A portion of cells was reactivated on 24-well plates coated with […] OKT3 and 1 µg/ml anti-CD28 (Clone CD28.2, BD Pharmingen, San Jose, Calif.) for 48 to 72 hours. CD19 expression and suicide gene function in both reactivated and non-reactivated cells were measured on day 24 or 25 post transduction.
The day following immunomagnetic selection, 10 nM of the chemical inducer of dimerization, AP20187, was added to induce apoptosis, which appeared within 24 hours. […] Killing efficiency after correction for baseline viability was about 92.9%±3.8%. Large-scale CD19 selection produced cells that were killed with similar efficiency as small-scale selection: mean viability with and without AP20187, and percentage killing, in large and small scale were about 3.9%, about 84.0%, about 95.4% (n=3) and about 6.6%, about 79.3%, about 91.4% (n=5) respectively. AP20187 was non-toxic to non-transduced cells: viability with and without AP20187 was about 86%±9% and 87%±8% respectively (n=6).
To assess the stability of transgene expression and function, cells were maintained in T cell culture medium and low dose IL-2 (50 U/ml) until 24 days after transduction. A portion of cells was then reactivated with OKT3/anti-CD28. CD19 expression was analyzed by flow cytometry 48 to 72 hours later, and suicide gene function was assessed by treatment with 10 nM AP20187. The obtained are for cells from day 5 post transduction (ie, 1 day after CD 19 selection) and day 24 post transduction, with or without 48-72 hours of reactivation (5 experiments). In 2 experiments, CD25 selection was performed after OKT3/αCD28 activation to further enrich activated cells. Error bars represent standard deviation. * indicates p<0.05 when compared to cells from day 5 post transduction. By day 24, surface CD19 expression fell from about 98%±1% to about 88%±4% (p<0.05) with a parallel decrease in mean fluorescence intensity (MFI) from 793±128 to 478±107 (p<0.05) (see FIG. 13B). Similarly, there was a significant reduction in suicide gene function: residual viability was 19.6±5.6% following treatment with AP20187; after correction for baseline viability of 54.8±20.9%, this equated to killing efficiency of only 63.1±6.2%.

[2] = 10 nM AP20187, day after CD19 selection
[3] = day 24 post transduction, non-reactivated
[4] = large-scale CD19 selection (n=3)
[5] = small-scale CD19 selection (n=5)

| Structure (SMILES) | activation of iC9 in T cells (caspase 3/7) (T cells expressing iC9) | CAR-T cells with i9+CARζ+MC or FRBFwtMC/FvC9 (Raji-GFP cells) | toxicity to non-transduced cells (non-transduced cells) | viability with AP20187 (non-transduced cells; non-transduced cells (n=6)) | killing efficiency after correction for baseline viability [1, 2] | viable cells (annexin V and 7-AAD negative) at 24 hours [1, 2] | killing ([1]; CD25 negative fraction after reactivation) | killing efficiency ([1]; OKT3/αCD28-reactivated cells, day 24 or 25) | killing efficiency ([1]; day 5 post transduction) | killing efficiency [1, 3] | residual viability following AP20187 [1, 3] | apoptosis after treatment with dimerizer ([1]; iCasp9-modified donor T cells) | mean viability with AP20187 [1, 4] | percentage killing [1, 4] | mean viability with AP20187 [1, 5] | percentage killing [1, 5] |
| --- | --- | --- | --- | --- | --- | --- | --- | --- | --- | --- | --- | --- | --- | --- | --- | --- |
| CC[C@H](C(=O)N1CCCC[C@H]1C(=O)O[C@H](CCc1ccc(OC)c(OC)c1)c1cccc(OCC(=O)NCCNC(=O)COc2cccc([C@@H](CCc3ccc(OC)c(OC)c3)OC(=O)[C@@H]3CCCCN3C(=O)[C@@H](CC)c3cc(OC)c(OC)c(OC)c3)c2)c1)c1cc(OC)c(OC)c(OC)c1 [rimiducid] | can activate | caused cell death |  |  |  |  |  |  |  |  |  |  |  |  |  |  |
| CC[C@H](C(=O)N1CCCC[C@H]1C(=O)O[C@H](CCc1ccc(OC)c(OC)c1)c1cccc(OCC(=O)NCC(CNC(=O)COc2cccc([C@@H](CCc3ccc(OC)c(OC)c3)OC(=O)[C@@H]3CCCCN3C(=O)[C@@H](CC)c3cc(OC)c(OC)c(OC)c3)c2)CN(C)C)c1)c1cc(OC)c(OC)c(OC)c1 [AP20187] |  |  | non-toxic | about 86%±9 | about 92.9%±3.8 | about 5.5%±2.5 | 78.6±9.1% | ~84.6%±8.0 | 93.1±3.5% | 63.1±6.2% | 19.6±5.6% | > 90% | about 3.9% | about 95.4% | about 6.6% | about 91.4% |
